Data on five compounds can be found in PMC3700413 (Journal of medicinal chemistry, 2008).

Each structure is given as a SMILES string. “Also recorded” adds a separate entry of the source. Read-outs that look alike come from different tables or passages of the source.

The target in test [1] is T1, CB2 cannabinoid receptor (Mus musculus, UniProt P47936). Description: Competitive [3H]CP55,940 binding assay, mouse spleen membranes. To be noted: rCB1 versus mCB2 Ki values.
Test [2] addresses T1, CB2 cannabinoid receptor. The following applies: earlier work on adamantyl substituents at C3 of Δ8-THC; cited from earlier work.

T1 sequence (P47936 whole entry): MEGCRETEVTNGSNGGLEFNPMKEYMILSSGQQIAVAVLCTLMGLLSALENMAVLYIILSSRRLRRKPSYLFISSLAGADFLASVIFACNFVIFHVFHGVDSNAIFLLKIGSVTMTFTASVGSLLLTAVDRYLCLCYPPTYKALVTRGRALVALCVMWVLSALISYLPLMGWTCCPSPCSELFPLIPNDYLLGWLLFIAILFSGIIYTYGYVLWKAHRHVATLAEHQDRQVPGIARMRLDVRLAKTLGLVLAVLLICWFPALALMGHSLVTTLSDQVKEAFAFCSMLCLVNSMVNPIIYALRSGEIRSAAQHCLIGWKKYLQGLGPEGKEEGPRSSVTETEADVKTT

With `CC1=CC[C@@H]2[C@@H](C1)c1c(O)cc([C@H]3C[C@@H]4CC[C@]3(C)C4(C)C)cc1OC2(C)C` [Compound 8a, (6aR-trans)-3-(endo-1′,7′,7′-Trimethylbicyclo[2.2.1]hept-2′-yl)-6a,7,10,10atetrahydro-6,6,9-trimethyl-6H-dibenzo[b,d]pyran-1-ol], the “CB1/CB2 receptor subtype selectivity (in words)” value in test [1] is “no subtype selectivity”. Same read-out and setting: for `CC1=CC[C@@H]2[C@@H](C1)c1c(ccc(C[C@H]3C[C@@H]4CC[C@]3(C)C4(C)C)c1O)OC2(C)C` [Compound 8c, (6aR-trans)-3-(endo-1′,7′,7′-Trimethylbicyclo[2.2.1]hept-2′-ylmethyl)-6a,7,10,10a-tetrahydro-6,6,9-trimethyl-6H-dibenzo[b,d]pyran-1-ol] the value was “nonselective; also recorded: complete loss of subtype selectivities”. Still for that read-out and setting: for `CC1=CC[C@@H]2[C@@H](C1)c1c(ccc(C[C@@H]3C[C@@H]4CC[C@]3(C)C4(C)C)c1O)OC2(C)C` [Compound 8d, (6aR-trans)-3-(exo-1′,7′,7′-Trimethylbicyclo[2.2.1]hept-2′-ylmethyl)-6a,7,10,10a-tetrahydro-6,6,9-trimethyl-6H-dibenzo[b,d]pyran-1-ol] the value was “nonselective; also recorded: complete loss of subtype selectivities”. On to `CC1=CC[C@@H]2[C@@H](C1)c1c(O)cc(C34CC5CC(CC(C5)C3)C4)cc1OC2(C)C` [Compound 11, 3-(adamant-1′-yl)-Δ^8-THC], for which the “CB1/CB2 receptor subtype selectivity (in words)” value in test [2] is recorded as “substantial CB1 selectivity”.

Regarding `CC1=CCC2C(C1)c1c(O)cc(C3C4CC5CC(C4)CC3C5)cc1OC2(C)C` (centres unmarked) [adamant-2′-yl analog], in test [2], the “CB1/CB2 receptor subtype selectivity (in words)” value was “CB2 selective”.
